Molecular target: T1, human CB2R (Homo sapiens, UniProt P34972)
T1 construct: host or cells: CHO cells
Assay: CB2R mediated modulation of cAMP synthesis
Type: cell-based
Conditions: qualitative statement; found 'through the use of the above described assays'; CHO cells expressing human CB2R, forskolin-stimulated cAMP
Experimental: B. CB2R Mediated Modulation of cAMP Synthesis:
CHO cells expressing human CB2R (Euroscreen) were plated at a density of 5000 cells per well in 384 well plates and incubated overnight at 37° C. After removing the media, the cells were treated with test compounds diluted in stimulation buffer containing 1 mM IBMX, 0.25% BSA and 10 uM Forskolin. The assay was incubated for 30 minutes at 37° C. Cells were lysed and the cAMP concentration was measured using DiscoverX-XS cAMP kit, following the manufacturer's protocol. In this setting, agonists will decrease forskolin induced production of cAMP while inverse agonists will further increase forskolin induced production of cAMP. EC50 of agonists were calculated as follows. The maximal amount of cAMP produced by forskolin compared to the level of cAMP inhibited by 1 uM CP55940 is defined as 100%. The EC50 value of each test compound was determined as the concentration at which 50% of the forskolin-stimulated cAMP synthesis was inhibited. Data was analyzed using a four-parameter logistic model. (Model 205 of XLfit 4.0).

T1 sequence (P34972 whole entry): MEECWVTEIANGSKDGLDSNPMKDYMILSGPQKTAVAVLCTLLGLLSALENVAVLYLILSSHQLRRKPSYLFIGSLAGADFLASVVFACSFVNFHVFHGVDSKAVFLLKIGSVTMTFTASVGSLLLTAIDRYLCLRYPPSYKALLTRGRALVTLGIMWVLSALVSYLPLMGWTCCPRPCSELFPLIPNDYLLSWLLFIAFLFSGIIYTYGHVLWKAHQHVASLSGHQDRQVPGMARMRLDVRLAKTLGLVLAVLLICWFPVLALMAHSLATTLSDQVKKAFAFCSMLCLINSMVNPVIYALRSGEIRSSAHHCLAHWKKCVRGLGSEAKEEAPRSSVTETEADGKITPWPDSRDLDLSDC

Structure (SMILES)	agonistic activity
CN(Cc1ccc(S(=O)(=O)c2ccccc2)cc1)C[C@H](O)c1ccccc1 [Example 17, (R)-2-[(4-Benzenesulfonyl-benzyl)-methyl-amino]-1-phenyl-ethanol]	agonistic activity
CN(Cc1ccc(Oc2ccccc2)cc1)C[C@H](O)c1ccccc1 [Example 19, (R)-2-[Methyl-(4-phenoxy-benzyl)-amino]-1-phenyl-ethanol]	agonistic activity
O[C@H](CNCc1cnc2ccccc2c1)c1ccccc1 [Example 22, (S)-1-Phenyl-2-[(quinolin-3-ylmethyl)-amino]-ethanol]	agonistic activity
CN(Cc1ccc(Oc2ccccc2)nc1)C[C@@H](O)c1ccccc1 [Example 21, (S)-2-[Methyl-(6-phenoxy-pyridin-3-ylmethyl)-amino]-1-phenyl-ethanol]	agonistic activity
Cc1ccc(C)c(Nc2ccc(CN(C)CC(O)c3ccccc3)cc2)c1 (centres unmarked) [Example 1, 2-{[4-(2,5-Dimethyl-phenylamino)-benzyl]-methyl-amino}-1-phenyl-ethanol]	agonistic activity
Cc1ccc(C)c(Nc2ccc(CN(C)CC(O)c3ccccc3)cn2)c1 (centres unmarked) [Example 7, 2-{[6-(2,5-dimethyl-phenylamino)-pyridin-3-ylmethyl]-methyl-amino}-1-phenyl-ethanol]	agonistic activity
CN(Cc1ccc(Nc2ccccc2)cc1)C[C@H](O)c1ccccc1 [Example 15, (R)-2-[Methyl-(4-phenylamino-benzyl)-amino]-1-phenyl-ethanol]	agonistic activity
CN(Cc1cnc2ccccc2c1)C[C@H](O)c1ccccc1 [Example 20, (R)-2-(Methyl-quinolin-3-ylmethyl-amino)-1-phenyl-ethanol]	agonistic activity
CN(Cc1ccc(Nc2ccccc2)cc1)CC(O)c1ccccc1 (centres unmarked) [Example 2, 2-[methyl-(4-phenylamino-benzyl)-amino]-1-phenyl-ethanol]	agonistic activity

Now from value to compound:

agonistic activity	Structure (SMILES)
agonistic activity	Cc1ccc(Cl)c(Nc2ccc(CN(C)CC(O)c3ccccc3)cn2)c1 (centres unmarked) [Example 8, 2-{[6-(2-chloro-5-methyl-phenylamino)-pyridin-3-ylmethyl]-methyl-amino}-1-phenyl-ethanol]
agonistic activity	CN(Cc1ccc(Nc2ccccc2Cl)cc1)CC(O)c1ccccc1 (centres unmarked) [Example 4, 2-{[4-(2-chloro-phenylamino)-benzyl]-methyl-amino}-1-phenyl-ethanol]
agonistic activity	CN(Cc1ccc(Nc2ccccc2Cl)nc1)CC(O)c1ccccc1 (centres unmarked) [Example 10, 2-{[6-(2-chloro-phenylamino)-pyridin-3-ylmethyl]-methyl-amino}-1-phenyl-ethanol]
agonistic activity	Cc1ccc(Cl)c(Nc2ccc(CN(C)CC(O)c3ccccc3)cc2)c1 (centres unmarked) [Example 3, 2-{[4-(2-chloro-5-methyl-phenylamino)-benzyl]-methyl-amino}-1-phenyl-ethanol]
agonistic activity	Cc1ccccc1Nc1ccc(CN(C)CC(O)c2ccccc2)cc1 (centres unmarked) [Example 6, 2-[methyl-4(o-tolylamino-benzyl)-amino]-1-phenyl-ethanol]
agonistic activity	Cc1ccc(Cl)cc1Nc1ccc(CN(C)CC(O)c2ccccc2)cn1 (centres unmarked) [Example 9, 2-{[6-(5-chloro-2-methyl-phenylamino)-pyridin-3-ylmethyl]-methyl-amino}-1-phenyl-ethanol]
agonistic activity	CN(Cc1ccc(Nc2ccccc2Cl)cc1)C[C@H](O)c1ccccc1 [Example 5, (R)-2-{[4-(2-chloro-phenylamino)-benzyl]-methyl-amino}-1-phenyl-ethanol]
agonistic activity	Cc1ccccc1Nc1ccc(CN(C)CC(O)c2ccccc2)cn1 (centres unmarked) [Example 11, 2-[methyl-(6-o-tolylamino-pyridin-3-ylmethyl)-amino]-1-phenyl-ethanol]

Reference: patent US20090275611A1, “Compounds Which Modulate The CB2 Receptor” (BOEHRINGER INGELHEIM INTERNATIONAL GMBH, priority 2006, published 2009)
